Data as given in ChEMBL document CHEMBL5584338, “Design, Synthesis, and Biological Evaluation of 5-Amino-4-fluoro-1H-benzo[d]imidazole-6-carboxamide Derivatives as Novel and Potential MEK/RAF Complex Inhibitors Based on the "Clamp" Strategy” (J Med Chem, 2024).

Legend:
HCT-116 [1] = experiment: Antiproliferative activity against human HCT-116 cells harboring KRAS G13D mutant at 1 uM incubated for 72 hrs by CCK8 assay relative to control; assay type: functional
[2] = biological target: Dual specificity mitogen-activated protein kinase kinase 1 (Homo sapiens, UniProt Q02750); experiment: Inhibition of MEK1 (unknown origin) assessed as remaining activity at 0.1 uM relative to control
Chain of Dual specificity mitogen-activated protein kinase kinase 1 (Q02750 whole entry): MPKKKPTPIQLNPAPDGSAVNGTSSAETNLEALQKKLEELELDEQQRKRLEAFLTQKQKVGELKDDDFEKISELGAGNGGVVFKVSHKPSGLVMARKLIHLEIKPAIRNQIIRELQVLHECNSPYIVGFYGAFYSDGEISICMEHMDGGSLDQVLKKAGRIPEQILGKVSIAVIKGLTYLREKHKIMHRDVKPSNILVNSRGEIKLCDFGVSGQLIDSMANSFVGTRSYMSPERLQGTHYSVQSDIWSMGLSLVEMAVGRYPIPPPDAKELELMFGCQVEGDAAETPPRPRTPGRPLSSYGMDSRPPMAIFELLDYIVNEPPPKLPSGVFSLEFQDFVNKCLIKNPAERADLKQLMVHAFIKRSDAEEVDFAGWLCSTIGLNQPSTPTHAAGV

[3] = biological target: Serine/threonine-protein kinase B-raf (Homo sapiens, UniProt P15056); experiment: Inhibition of BRAF (unknown origin) assessed as remaining activity at 0.1 uM relative to control
Chain of Serine/threonine-protein kinase B-raf (P15056 whole entry): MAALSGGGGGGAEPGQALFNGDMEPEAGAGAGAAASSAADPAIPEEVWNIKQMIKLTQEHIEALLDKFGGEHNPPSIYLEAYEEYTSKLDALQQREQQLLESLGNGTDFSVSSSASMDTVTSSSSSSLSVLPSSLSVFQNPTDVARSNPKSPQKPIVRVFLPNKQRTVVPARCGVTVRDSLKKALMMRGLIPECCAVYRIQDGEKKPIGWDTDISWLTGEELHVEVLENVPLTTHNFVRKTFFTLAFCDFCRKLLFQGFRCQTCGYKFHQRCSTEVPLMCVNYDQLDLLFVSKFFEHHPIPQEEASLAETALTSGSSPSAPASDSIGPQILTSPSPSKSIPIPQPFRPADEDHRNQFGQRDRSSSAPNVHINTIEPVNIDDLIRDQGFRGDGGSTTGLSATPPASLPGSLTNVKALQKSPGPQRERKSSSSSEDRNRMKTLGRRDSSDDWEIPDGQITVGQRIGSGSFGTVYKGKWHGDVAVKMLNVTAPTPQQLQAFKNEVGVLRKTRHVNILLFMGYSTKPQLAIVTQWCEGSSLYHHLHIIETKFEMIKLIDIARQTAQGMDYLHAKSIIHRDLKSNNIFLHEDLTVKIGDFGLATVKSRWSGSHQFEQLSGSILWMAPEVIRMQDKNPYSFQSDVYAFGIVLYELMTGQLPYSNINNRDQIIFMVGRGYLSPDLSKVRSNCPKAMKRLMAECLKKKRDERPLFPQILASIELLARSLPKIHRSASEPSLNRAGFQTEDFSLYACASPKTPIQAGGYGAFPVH

MIA PaCa-2 [4] = experiment: Antiproliferative activity against human MIA PaCa-2 cells harboring KRAS G12C mutant at 0.1 uM incubated for 72 hrs by CCK8 assay relative to control; assay type: functional
MIA PaCa-2 [5] = experiment: Antiproliferative activity against human MIA PaCa-2 cells harboring KRAS G12C mutant incubated for 72 hrs by CCK8 assay; assay type: functional, cell-based; settings: MIA PaCa-2, 72 h
HCT-116 [6] = experiment: Antiproliferative activity against human HCT-116 cells harboring KRAS G13D mutant incubated for 72 hrs by CCK8 assay; assay type: functional, cell-based; settings: HCT-116, 72 h

Question: For `O=C(NOCCO)c1cc2c(ncn2Cc2cccc(NC(=O)C3CCCC3)c2)c(F)c1Nc1ccc(C2CC2)cc1F`, which inhibition at 1 µM (HCT-116 [1]) is on record?
Answer: 4.21%

Question: What about the Activity [2] of the same compound?
Answer: 91%

Question: What about the Activity [3] of the same compound?
Answer: 71%

Question: And the inhibition at 0.1 µM (MIA PaCa-2 [4])?
Answer: -29.7%

Question: Which results are given for `CNS(=O)(=O)Nc1cccc(Cn2cnc3c(F)c(Nc4ccc(Br)cc4F)c(C(=O)NOCCO)cc32)c1Cl`?
Answer: inhibition at 1 µM (HCT-116 [1]): 47.8%; Activity [2]: 15%; Activity [3]: 3%; inhibition at 0.1 µM (MIA PaCa-2 [4]): 28.4%

Question: With `CCNS(=O)(=O)Nc1cccc(Cn2cnc3c(F)c(F)c(C(=O)NOCCO)cc32)c1F` as the compound, how does the inhibition at 1 µM (HCT-116 [1]) read?
Answer: 10.8%

Question: And the inhibition at 0.1 µM (MIA PaCa-2 [4])?
Answer: 6.04%

Question: `O=C(NOCCO)c1cc2c(ncn2Cc2cccc(NC(=O)C3CC3)c2)c(F)c1Nc1ccc(C2CC2)cc1F` was tested. Which inhibition at 1 µM (HCT-116 [1]) did it give?
Answer: 19.3%

Question: What about the inhibition at 0.1 µM (MIA PaCa-2 [4]) of the same compound?
Answer: 45%

Question: And the IC50 (MIA PaCa-2 [5])?
Answer: 628 nM

Question: How did the inhibition at 1 µM (HCT-116 [1]) turn out when `CNS(=O)(=O)Nc1cccc(Cn2cnc3c(F)c(Nc4ccc(C5CCCC5)cc4F)c(C(=O)NOCCO)cc32)c1F` was run?
Answer: 24.8%

Question: What about the Activity [2] of the same compound?
Answer: 98%

Question: And the Activity [3]?
Answer: 13%

Question: And the inhibition at 0.1 µM (MIA PaCa-2 [4])?
Answer: 12.1%

Question: How did the inhibition at 1 µM (HCT-116 [1]) turn out when `O=C(NOCCO)c1cc2c(ncn2Cc2cccc(NC(=O)C3CCC3)c2)c(F)c1Nc1ccc(C2CC2)cc1F` was run?
Answer: 25.1%

Question: What about the Activity [2] of the same compound?
Answer: 76%

Question: And the Activity [3]?
Answer: 32%

Question: And the inhibition at 0.1 µM (MIA PaCa-2 [4])?
Answer: 38.9%

Question: What about the IC50 (MIA PaCa-2 [5]) of the same compound?
Answer: 1280 nM

Question: With `CCNS(=O)(=O)Nc1cc(Cn2cnc3c(F)c(Nc4ccc(C5CC5)cc4F)c(C(=O)NOCCO)cc32)ccc1F` as the compound, how does the inhibition at 1 µM (HCT-116 [1]) read?
Answer: 17.5%

Question: What about the inhibition at 0.1 µM (MIA PaCa-2 [4]) of the same compound?
Answer: 34.5%

Question: How did the inhibition at 1 µM (HCT-116 [1]) turn out when `CNS(=O)(=O)Nc1ccc(F)c(Cn2cnc3c(F)c(Nc4ccc(C5CC5)cc4F)c(C(=O)NOCCO)cc32)c1` was run?
Answer: 12%

Question: And the Activity [2]?
Answer: 79%

Question: And the Activity [3]?
Answer: 21%

Question: And the inhibition at 0.1 µM (MIA PaCa-2 [4])?
Answer: 7.1%

Question: Which results are given for `CCNS(=O)(=O)Nc1cccc(Cn2cnc3c(F)c(Nc4ccc(Br)cc4F)c(C(=O)NOCCO)cc32)c1Cl`?
Answer: inhibition at 1 µM (HCT-116 [1]): 39.8%; inhibition at 0.1 µM (MIA PaCa-2 [4]): 21.9%

Question: What does the source list for `CCNS(=O)(=O)Nc1cccc(Cn2cnc3c(F)c(Nc4ccc(C5CCC5)cc4F)c(C(=O)NOCCO)cc32)c1F`?
Answer: inhibition at 1 µM (HCT-116 [1]): 56.2%; Activity [2]: 84%; Activity [3]: 4%; inhibition at 0.1 µM (MIA PaCa-2 [4]): 29%; IC50 (MIA PaCa-2 [5]): 942 nM

Question: Which results are given for `O=C(NOCCO)c1cc2c(ncn2Cc2cccc(NC(=O)C3CCCCC3)c2)c(F)c1Nc1ccc(C2CC2)cc1F`?
Answer: inhibition at 1 µM (HCT-116 [1]): 13.7%; Activity [2]: 88%; Activity [3]: 35%; inhibition at 0.1 µM (MIA PaCa-2 [4]): 11.5%

Question: Which inhibition at 1 µM (HCT-116 [1]) does the source give for `CCC(=O)Nc1cccc(Cn2cnc3c(F)c(Nc4ccc(C5CC5)cc4F)c(C(=O)NOCCO)cc32)c1` here?
Answer: 17.8%

Question: What about the Activity [2] of the same compound?
Answer: 89%

Question: What about the Activity [3] of the same compound?
Answer: 75%

Question: What about the inhibition at 0.1 µM (MIA PaCa-2 [4]) of the same compound?
Answer: 18%

Question: And the IC50 (MIA PaCa-2 [5])?
Answer: 985 nM

Question: How did the inhibition at 1 µM (HCT-116 [1]) turn out when `CCNS(=O)(=O)Nc1ccc(F)c(Cn2cnc3c(F)c(Nc4ccc(C5CC5)cc4F)c(C(=O)NOCCO)cc32)c1` was run?
Answer: 17.5%

Question: What about the inhibition at 0.1 µM (MIA PaCa-2 [4]) of the same compound?
Answer: -38.8%

Question: How did the inhibition at 1 µM (HCT-116 [1]) turn out when `CNS(=O)(=O)Nc1cc(Cn2cnc3c(F)c(Nc4ccc(C5CC5)cc4F)c(C(=O)NOCCO)cc32)ccc1F` was run?
Answer: 35.2%

Question: And the Activity [2]?
Answer: 85%

Question: What about the Activity [3] of the same compound?
Answer: 16%

Question: What about the inhibition at 0.1 µM (MIA PaCa-2 [4]) of the same compound?
Answer: 31.6%

Question: And the IC50 (MIA PaCa-2 [5])?
Answer: 611 nM

Question: What does the source list for `CNS(=O)(=O)N1CCCC(Cn2cnc3c(F)c(Nc4ccc(C5CC5)cc4F)c(C(=O)NOCCO)cc32)C1` (stereo not drawn)?
Answer: inhibition at 1 µM (HCT-116 [1]): -9.58%; inhibition at 0.1 µM (MIA PaCa-2 [4]): 31.1%

Question: `CNS(=O)(=O)N1CCC(Cn2cnc3c(F)c(Nc4ccc(C5CC5)cc4F)c(C(=O)NOCCO)cc32)C1` (stereo not drawn) was tested. Which inhibition at 1 µM (HCT-116 [1]) did it give?
Answer: 2.43%

Question: What about the inhibition at 0.1 µM (MIA PaCa-2 [4]) of the same compound?
Answer: -13.4%

Question: What does the source list for `CNS(=O)(=O)Nc1cccc(Cn2cnc3c(F)c(F)c(C(=O)NOCCO)cc32)c1F`?
Answer: inhibition at 1 µM (HCT-116 [1]): 14.8%; inhibition at 0.1 µM (MIA PaCa-2 [4]): 24.7%

Question: How did the inhibition at 1 µM (HCT-116 [1]) turn out when `CCNS(=O)(=O)Nc1cccc(Cn2cnc3c(F)c(Nc4ccc(C5CCCC5)cc4F)c(C(=O)NOCCO)cc32)c1F` was run?
Answer: 26.9%

Question: What about the inhibition at 0.1 µM (MIA PaCa-2 [4]) of the same compound?
Answer: 6.88%

Question: `CS(=O)(=O)Nc1cccc(Cn2cnc3c(F)c(Nc4ccc(C5CC5)cc4F)c(C(=O)NOCCO)cc32)c1` was tested. Which inhibition at 1 µM (HCT-116 [1]) did it give?
Answer: 46.2%

Question: What about the Activity [2] of the same compound?
Answer: 75%

Question: And the Activity [3]?
Answer: 6%

Question: What about the inhibition at 0.1 µM (MIA PaCa-2 [4]) of the same compound?
Answer: 50.5%

Question: What about the IC50 (MIA PaCa-2 [5]) of the same compound?
Answer: 138 nM

Question: Which inhibition at 1 µM (HCT-116 [1]) does the source give for `Cn1cnc2c(F)c(Nc3ccc(Br)cc3F)c(C(=O)NOCCO)cc21` [BINIMETINIB] here?
Answer: 41.4%

Question: What about the inhibition at 0.1 µM (MIA PaCa-2 [4]) of the same compound?
Answer: 58.8%

Question: What about the IC50 (HCT-116 [6]) of the same compound?
Answer: 2000 nM

Question: What about the IC50 (MIA PaCa-2 [5]) of the same compound?
Answer: 182 nM
